Measurements: patent US10392398B2, “Inhibitors of Late SV40 Factor (LSF) as cancer chemotherapeutics” (TRUSTEES OF BOSTON UNIVERSITY, priority 2010, dated 2019)

Legend:
USF = assay: USF-dependent reporter assay; assay type: cell-based
Method: (§1) USF-dependent reporter assays were performed with FQI1 only. Averages with standard deviation (SD) derive from 3-4 independent experiments. […] “−LSF”: translation extract with no programmed LSF. […] Myc-LSF-HA expression was induced with the small molecule inducer RSL1. In induced cells, FQI1 or vehicle was added for the final 12 h of myc-LSF-HA induction.

LSF [1] = biological target: T1, LSF (Homo sapiens, UniProt Q12800); assay: Chromatin immunoprecipitation of myc-LSF-HA binding to the endogenous POLA1 promoter; assay type: cell-based; set-up: expressed in transfected cells; details: human cell line
T1 sequence (Q12800 1-502): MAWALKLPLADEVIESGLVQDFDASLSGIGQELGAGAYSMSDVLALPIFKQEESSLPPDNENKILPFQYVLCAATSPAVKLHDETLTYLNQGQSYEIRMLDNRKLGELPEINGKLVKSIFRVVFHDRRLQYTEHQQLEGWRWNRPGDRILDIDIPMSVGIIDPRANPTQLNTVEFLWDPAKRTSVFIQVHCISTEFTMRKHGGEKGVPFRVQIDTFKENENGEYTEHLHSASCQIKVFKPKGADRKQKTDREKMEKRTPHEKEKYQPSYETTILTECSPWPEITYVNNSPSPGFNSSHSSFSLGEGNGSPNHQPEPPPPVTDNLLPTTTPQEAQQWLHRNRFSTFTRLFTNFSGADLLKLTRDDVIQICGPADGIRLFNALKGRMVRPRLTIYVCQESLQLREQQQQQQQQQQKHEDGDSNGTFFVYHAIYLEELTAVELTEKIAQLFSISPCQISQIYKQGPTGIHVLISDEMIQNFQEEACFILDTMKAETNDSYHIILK
Method: as §1

HepG3 cells = assay: TUNEL apoptosis assay, HepG3; assay type: cell-based; details: same conditions as QGY-7703
Method: HCC cells were plated 24 h prior to incubation with FQI1. At the indicated time points, cells were analyzed using the FragEL™ DNA fragmentation kit (Calbiochem) according to the manufacturer's protocol. Flow cytometry was performed using a FACS caliber (Becton Dickinson) and analyzed with Cell Quest software.

LSF [2] = biological target: T1, LSF; assay: Electrophoretic mobility shift assay (EMSA) of LSF DNA-binding; assay type: biochemical; details: in vitro translated LSF
Method: LSF was translated in vitro as previously described^16 for use in EMSAs. Protein was preincubated with inhibitor or DMSO and then incubated with 0.5 μg poly d(I-C) for 15 min at 4° C. in 40 mM KCl, 15 mM HEPES pH 7.9, 1 mM EDTA, 0.5 mM DTT, 5% glycerol. Finally, radiolabelled double-stranded DNA ([…]—SEQ ID NO: 5- and its complement) were added for a 30-min incubation at 30° C. Results were visualized using a PhosphorImager and quantified using ImageQuant software.

LBP1a/b = assay: Cellular Thermal Shift Assay (CETSA), LBP1a/b; assay type: binding; details: QGY-7703 lysate, 500 μM
Method: (§2) Drug-target engagement was assessed using CETSA as described by Molina et al. (Monitoring Drug-Target Engagement in Cells and Tissues Using Cellular Thermal Shift Assay. Science (2013) 341, 84-87). QGY-7703 cells were cultured at 37° C. in 5% CO2 in DMEM (Dulbecco's modification of Eagle's Medium; Corning) supplemented with 10% Fetal Bovine Serum (FBS; Invitrogen). Cells were seeded into 10 cm plates and allowed to reach 60-80% confluency. After trypsinization (0.05% Trypsin-EDTA, Invitrogen), cell pellet was washed twice with ice-cold 1×PBS (137 mM NaCl, 2.7 mM KCl, 10 mM Na2HPO4, 2 mM KH2PO4, pH 7.2). Cell pellet was lysed by addition of 200 μL freshly prepared ice-cold RIPA buffer (10 mM Tris-Cl pH 8.0, 1 mM EDTA, 0.5 mM EGTA, 1% Triton X-100, 0.1% sodium deoxycholate, 0.1% SDS, 140 mM NaCl) supplemented with 1 mM Pefabloc (Sigma-Aldrich), and flash frozen in liquid nitrogen and thawed for a total of three cycles. Cell lysate was centrifuged at 20,000×g for 20 minutes to clarify. Supernatant was either treated immediately or saved at −80° C. for future use. […]
(§3) Immunoblots were quantified using Image J and graphed using GraphPad PRISM. Area-under-the-curve (AUC) for the quantified western blots were calculated with GraphPad PRISM and non-parametric t-test was calculated to determine statistical significance between the curves. […]

GRHL1 = biological target: T2, GRHL1 (Homo sapiens, UniProt Q9NZI5); assay: Cellular Thermal Shift Assay (CETSA), GRHL1; assay type: binding; details: QGY-7703 lysate, 500 μM
T2 construct: endogenous in cells; host or cells: QGY-7703 cell lysate
T2 sequence (Q9NZI5 1-618): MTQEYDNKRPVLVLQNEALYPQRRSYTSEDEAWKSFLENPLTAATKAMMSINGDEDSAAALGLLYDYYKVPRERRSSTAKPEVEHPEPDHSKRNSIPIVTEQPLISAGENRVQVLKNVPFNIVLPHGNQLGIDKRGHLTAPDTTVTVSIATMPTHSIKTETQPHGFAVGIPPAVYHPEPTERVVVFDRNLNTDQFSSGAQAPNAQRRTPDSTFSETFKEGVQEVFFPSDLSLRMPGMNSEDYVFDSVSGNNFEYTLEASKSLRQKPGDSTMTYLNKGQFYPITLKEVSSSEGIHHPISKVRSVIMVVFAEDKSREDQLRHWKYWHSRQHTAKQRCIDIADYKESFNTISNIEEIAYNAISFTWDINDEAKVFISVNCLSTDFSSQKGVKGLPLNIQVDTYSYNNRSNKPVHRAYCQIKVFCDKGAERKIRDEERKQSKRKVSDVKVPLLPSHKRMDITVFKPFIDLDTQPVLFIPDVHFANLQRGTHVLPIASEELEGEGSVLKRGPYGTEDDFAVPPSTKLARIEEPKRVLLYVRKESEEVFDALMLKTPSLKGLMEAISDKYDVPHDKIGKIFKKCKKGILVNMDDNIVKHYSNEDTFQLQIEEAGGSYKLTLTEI
Method: as §2, §3

Row | Structure (SMILES) | transactivation of a USF-dependent reporter by USF (USF) | binding of inducible HA-tagged LSF to the POLA1 promoter (ChIP) (LSF [1]) | TUNEL positivity of HepG3 cells (HepG3 cells) | modulation of LSF DNA-binding in EMSA (LSF [2]) | binding to LBP1a/b by CETSA (LBP1a/b) | binding to GRHL1 by CETSA (GRHL1)
1 | CCOc1ccccc1C1CC(=O)Nc2cc3c(cc21)OCO3 (racemic) [FQI1, 8-(2-ethoxyphenyl)-7,8-dihydro-[1,3]dioxolo[4,5-g]quinolin-6(5H)-one] | unaffected | efficiently blocked | not TUNEL-positive | initial enhancement at low concentrations and inhibition at higher concentrations | – | –
2 | CCOc1cc(N(C)C)ccc1C1CC(=O)Nc2cc3c(cc21)OCO3 (stereo not drawn) [FQI-34, 8-(4-(dimethylamino)-2-ethoxyphenyl)-7,8-dihydro-[1,3]dioxolo[4,5-g]quinolin-6(5H)-one] | – | – | – | – | directly binds | does not bind
